# Experimental data from ChEMBL document CHEMBL1128274, “6-Aminoquinolones: a new class of quinolone antibacterials?” (1995).
# Experiments:
# Format in all cases: functional
# [1] = test system: Staphylococcus epidermidis; assay: Tested in vitro for inhibitory activity against gram positive bacteria Staphylococcus epidermidis HCF berset C strain
# [2] = test system: Pseudomonas aeruginosa; assay: Tested in vitro for inhibitory activity against gram negative bacteria Pseudomonas aeruginosa ATCC 9027 strain
# [3] = test system: Acinetobacter calcoaceticus; assay: Tested in vitro for inhibitory activity against gram negative bacteria Acinetobacter calcoaceticus OSMPV 113 strain.
# [4] = test system: Shigella; assay: Tested in vitro for inhibitory activity against gram negative bacteria Shigella enteritidis
# [5] = test system: Staphylococcus epidermidis; assay: Tested in vitro for inhibitory activity against gram positive bacteria Staphylococcus epidermidis CPHL A2 strain
# [6] = test system: Enterococcus faecalis; assay: Tested in vitro for inhibitory activity against gram positive bacteria Streptococcus faecalis LEP Br strain
# [7] = test system: Staphylococcus aureus; assay: Tested in vitro for inhibitory activity against gram positive bacteria Staphylococcus aureus ATCC 6538 strain
# [8] = test system: Providencia stuartii; assay: Tested in vitro for inhibitory activity against gram negative bacteria Providencia stuartii CNUR 5 strain
# [9] = test system: Klebsiella pneumoniae; assay: Tested in vitro for inhibitory activity against gram negative bacteria Klebsiella pneumoniae ATCC 10031 strain
# [10] = test system: Staphylococcus aureus; assay: Tested in vitro for inhibitory activity against gram positive bacteria Staphylococcus aureus MPR 5 strain
# [11] = test system: Enterobacter cloacae; assay: Tested in vitro for inhibitory activity against gram negative bacteria Enterobacter cloacae OMNFI 174 strain.
# [12] = test system: Escherichia coli; assay: Tested in vitro for inhibitory activity against gram negative bacteria Escherichia coli ATCC 8739 strain
# [13] = test system: Escherichia coli; assay: Tested in vitro for inhibitory activity against gram negative bacteria Escherichia coli ISF 432 strain.
# [14] = test system: Escherichia coli; assay: Tested in vitro for inhibitory activity against gram negative bacteria Escherichia coli ATCC 8739 cell lines at 25 ug/mL
# [15] = test system: Escherichia coli; assay: Tested in vitro for inhibitory activity against gram negative bacteria Escherichia coli ISF 432 cell lines at 25 ug/mL
SMILES,MIC [1] [µg/mL],MIC [2] [µg/mL],MIC [3] [µg/mL],MIC [4] [µg/mL],MIC [5] [µg/mL],MIC [6] [µg/mL],MIC [7] [µg/mL],MIC [8] [µg/mL],MIC [9] [µg/mL],MIC [10] [µg/mL],MIC [11] [µg/mL],MIC [12] [µg/mL],MIC [13] [µg/mL],MIC [14] [µg/mL],MIC [15] [µg/mL]
O=C(O)c1cn(C2CC2)c2cc(N3CCNCC3)c(F)cc2c1=O [CIPROFLOXACIN],0.12,0.06,0.06,0.03,0.06,0.5,0.12,0.06,0.03,0.12,,,,,
CN1CCN(c2cc3c(cc2N)c(=O)c(C(=O)O)cn3-c2ccc(F)cc2)CC1,8,8,16,4,8,64,8,4,0.12,4,4,0.12,0.12,,
Nc1cc2c(=O)c(C(=O)O)cn(-c3ccc(F)cc3)c2cc1N1CCSCC1,4,128,4,4,4,128,0.5,4,0.03,1,4,0.06,0.03,,
CC(=O)NC1CCN(c2cc3c(cc2N)c(=O)c(C(=O)O)cn3C2CC2)C1 (configuration not stated),128,128,128,128,128,128,128,128,4,128,128,4,4,,
CC(C)(C)n1cc(C(=O)O)c(=O)c2cc(N)c(N3CCCC3)cc21,8,64,16,32,8,128,4,64,0.12,8,16,0.12,0.12,,

# Next, values leading:
MIC [1] [µg/mL],MIC [2] [µg/mL],MIC [3] [µg/mL],MIC [4] [µg/mL],MIC [5] [µg/mL],MIC [6] [µg/mL],MIC [7] [µg/mL],MIC [8] [µg/mL],MIC [9] [µg/mL],MIC [10] [µg/mL],MIC [11] [µg/mL],MIC [12] [µg/mL],MIC [13] [µg/mL],MIC [14] [µg/mL],MIC [15] [µg/mL],SMILES
128,16,128,16,128,128,128,128,1,128,16,1,0.5,,,Nc1cc2c(=O)c(C(=O)O)cn(C3CC3)c2cc1N1CCC(N)C1 (configuration not stated)
4,2,4,0.12,4,32,4,2,0.03,4,0.12,,,0.12,0.03,CN1CCN(c2nc3c(cc2N)c(=O)c(C(=O)O)cn3C2CC2)CC1
64,64,64,32,64,,64,2,2,64,2,4,2,,,N#CCN1CCN(c2cc3c(cc2N)c(=O)c(C(=O)O)cn3C2CC2)CC1
8,2,8,0.25,4,64,4,4,0.05,4,0.25,,,1,0.05,CN1CCN(c2c(N)cc3c(=O)c(C(=O)O)cn(C4CC4)c3c2F)CC1
16,2,16,0.5,16,128,64,32,0.25,64,0.25,0.25,0.03,,,Nc1cc2c(=O)c(C(=O)O)cn(C3CC3)c2cc1N1CCNCC1
64,128,128,32,64,128,64,128,0.5,128,16,0.5,1,,,Nc1cc2c(=O)c(C(=O)O)cn(C3CC3)c2cc1N1CCSC1
4,8,2,2,2,8,4,8,0.03,4,2,0.03,0.03,,,Nc1cc2c(=O)c(C(=O)O)cn(C3CC3)c2cc1N1CCC(O)CC1
